Key:
[1] = tested on: caudate or thalamus of children with ADHD; experiment: T2 relaxometry of caudate and thalamus, blinded placebo-controlled daily treatment; assay type: in vivo, human
Excerpt: (§1) With this particular arrangement, an apparatus for indirectly assessing blood volume in the striatum (caudate and putamen and cerebellum) under steady-state conditions and for non-invasively diagnosing ADHD is provided. […] In one study eleven boys with ADHD had higher T2 relaxation times than six non-ADHD boys. The probability of this occurring by chance is 0.8%. The relaxation times correlated with the child's capacity to sit still, and their accuracy in performing a computerized attention task. Product-moment correlation coefficients (denoted r) for each of the above activities as well as with a probability of finding this occurrence by chance (denoted p) were computed using conventional techniques. […] It was discovered that ADHD symptoms may be closely tied to functional abnormalities in the putamen and cerebellum which are predominantly involved in the regulation and coordination of motoric behavior. […]
(§2) Turning now to FIG. 2, processing begins in steps 40 and 42 in which after positioning subjects to be tested (e.g. children or other persons possibly having brain dysfunction) in a scanning region of an MRI system of the type described above in conjunction with FIG. 1, and instructing the subjects to remain as still as possible, images of particular regions of interest (ROI) are acquired by perturbing the magnetic field in the subject and taking readings at particular times. […]

[2] = tested on: cerebellar vermis of boys with ADHD; experiment: T2 relaxometry (fMRI) of the cerebellar vermis after one week of daily treatment; assay type: in vivo, human; settings: for decrease in vermal T2-RT relative to placebo (average): three least active boys with ADHD
Experimental: (§3) In one particular embodiment, T2 relaxometry was used to indirectly assess blood volume in the cerebellum (hemispheres and midline vermis) of ten ADHD boys treated continuously for one week with placebo and three different doses of MPH. […] Following each week of treatment, and within 1-3 hours of their afternoon dose, testing for drug efficacy was performed using objective measures of activity.
Ten boys with ADHD (9.3±1.6 yr), and six healthy comparison subject boys (10.2±1.5 yr) were studied. Children with ADHD were screened using structured diagnostic interview (the Schedule for Affective Disorders and Schizophrenia for School-Age Children—Epidemiologic Version, “K-SADS-E”) and included if they met criteria for ADHD, and had at least 6 of 9 symptoms of inattention or hyperactivity-impulsivity. Children then took part in a triple blind (parent, child, rater), randomized, placebo-controlled study on the effects of methylphenidate (0, 0.5, 0.8, 1.5 mg/kg/day in two divided doses) on activity and fMRI. Children were treated continuously for one week with placebo or specific dose of methylphenidate. They were tested on day seven for drug response using objective measures of activity immediately following fMRI.
On test days, parents were instructed to give the afternoon dose 1 hour prior to their MRI appointment. Medication administration was assessed at each visit to insure that time between ingestion and testing were held constant for each subject throughout the study.
During each examination, 3 categories of images were obtained: (1) Scout images (typically T1-weighted sagittal images); (2) High resolution T1 matched axial images through the ten planes for which maps of T2 were generated; and (3) 32 spin echo, echoplanar image sets, with TE incremented by 4 msec in each consecutive image set (e.g. TE (1)=32 msec, TE (2)=36 msec, . . . TE (32)=156 msec) through the same ten axial planes ([…], Slice thickness=7 mm with a 3 mm skip, in-plane resolution=3.125 mm×3.125 mm, FOV=200 mm). The 32 TE-stepped images were then transferred to an off-line workstation and corrected for in plane motion using a modification of the DART image registration algorithm.
Values of T2 (x, y) and S (TE=0, x, y) were then calculated on a pixel-wise basis, assuming exponential decay, i.e. 1n [S (x, y, n)]=1n [S (TE=0), x, y]−TE (n)/T2 (x, y) where (x, y) describe the location of the pixel; n characterizes the echo number, from 1 to 32; and S is the image signal intensity. Linear least-squares regression was used to calculate a single T2 relaxation time measure for each pixel (x, y). Calculations of regional T2 relaxation time were made for regions of interest (ROI) drawn manually under the guidance of conventional T1-wighted matched MRI images in 2 to 4 slices through the cerebellum using anatomic boundaries observed in T1-weighted, preliminary T2-RT maps, and an atlas of the cerebellum. ROI slice selections were based on an assessment of the presence of cerebral spinal fluid in order to minimize partial volume artifacts, which result in abnormally elevated T2 relaxation times (values>100 msec were rejected). Sixteen voxel ROI's in the vermis were conservatively limited to square regions ([…]), to avoid encroaching into ventricular space and to provide consistency between slices and subjects.
FIGS. 7A and 7B show representative cerebellar ROIs including the vermis V and the left and right cerebella C. Delineation of regions and analysis of imaging data were performed on coded images, by an analyst very familiar with cerebellar anatomy who was blind to the identity, diagnosis, and treatment condition of the subject.

[3] = tested on: cerebellar hemispheres of boys with ADHD; experiment: T2 relaxometry (fMRI) of the cerebellar hemispheres after one week of daily treatment; assay type: in vivo, human; settings: Dose F=0.88, p>0.4; Dose x Activity F=0.47, p>0.7
Experimental: as §3
Ten boys with ADHD (9.3±1.6 yr), and six healthy comparison subject boys (10.2±1.5 yr) were studied. Children with ADHD were screened using structured diagnostic interview (the Schedule for Affective Disorders and Schizophrenia for School-Age Children—Epidemiologic Version, “K-SADS-E”) and included if they met criteria for ADHD, and had at least 6 of 9 symptoms of inattention or hyperactivity-impulsivity. […]
On test days, parents were instructed to give the afternoon dose 1 hour prior to their MRI appointment. Medication administration was assessed at each visit to insure that time between ingestion and testing were held constant for each subject throughout the study. […]
Values of T2 (x, y) and S (TE=0, x, y) were then calculated on a pixel-wise basis, assuming exponential decay, i.e. 1n [S (x, y, n)]=1n [S (TE=0), x, y]−TE (n)/T2 (x, y) where (x, y) describe the location of the pixel; n characterizes the echo number, from 1 to 32; and S is the image signal intensity. […]

[4] = tested on: putamen of children with ADHD; settings: stated as known; cited from earlier work
[5] = tested on: regional brain metabolism; settings: cited from earlier work; for effect of chronic treatment on regional brain metabolism (PET): adult ADHD patients, Matochik et al. 1994
[6] = tested on: cerebellum of the most hyperactive ADHD boys; experiment: T2 relaxometry of the cerebellum, blinded placebo-controlled daily treatment (summary study); assay type: in vivo, human; settings: eight of the most hyperactive boys; F3,21=5.011, p=0.0089
Excerpt: With this particular arrangement, an apparatus for indirectly assessing blood volume in the striatum (caudate and putamen and cerebellum) under steady-state conditions and for non-invasively diagnosing ADHD is provided. […] In one study eleven boys with ADHD had higher T2 relaxation times than six non-ADHD boys. The probability of this occurring by chance is 0.8%. The relaxation times correlated with the child's capacity to sit still, and their accuracy in performing a computerized attention task. Product-moment correlation coefficients (denoted r) for each of the above activities as well as with a probability of finding this occurrence by chance (denoted p) were computed using conventional techniques. […] It was discovered that ADHD symptoms may be closely tied to functional abnormalities in the putamen and cerebellum which are predominantly involved in the regulation and coordination of motoric behavior. […] It should also be appreciated that the apparatus and technique of the present invention may be equally applied to other brain regions (or even other organs) and may be useful for diagnosing conditions other than ADHD.
Referring now to FIG. 5, a T2 relaxation time image of the brain and cerebellum is shown. Circumscribed ROIs are illustrated for the cerebellar vermis V as well as, right R and left L cerebellar hemispheres. […]

[7] = tested on: putamen of children with ADHD; experiment: T2 relaxometry of the putamen, blinded placebo-controlled daily treatment; assay type: in vivo, human; settings: p=0.006
Excerpt: as §1, §2

[8] = tested on: adult ADHD subjects; settings: i.v., Ernst et al. 1998; cited from earlier work

## COC(=O)C(c1ccccc1)C1CCCCN1 (stereo not drawn) [methylphenidate]
[1]
  change of relaxation times in caudate or thalamus: nor did relaxation times in these regions change
[2]; high dose (1.5 mg/kg/day, one week), seven hyperactive ADHD boys
  increase in vermal T2-RT relative to placebo: 5.1%
[2]; high dose (1.5 mg/kg/day, one week)
  decrease in vermal T2-RT relative to placebo (average): 3.9%
[2]; high dose, F=15.98, df=1, 8, p=0.004
  group effect (hyperactive vs non-hyperactive boys) on percent change in vermis T2-RT: significant group effect
[2]; highest dose, hyperactive subjects, 95% CI in brackets
  effect size (Cohen d) of the medication-induced change in T2-RT: 2.13 (95% CI, 0.82-3.44)
[2]; increase in the most active ADHD children, reduction in those not objectively hyperactive
  effect of moderate and high doses on T2-RT (direction by basal activity): increased T2-RT in a rate-dependent manner
[2]; intermediate dose (0.8 mg/kg/day, one week), seven hyperactive ADHD boys
  increase in vermal T2-RT relative to placebo: 2.1%
[2]; intermediate dose (0.8 mg/kg/day, one week)
  decrease in vermal T2-RT relative to placebo (average): 3.5%
[2]; intermediate dose, F=6.75, df=1, 8, p=0.04
  group effect (hyperactive vs non-hyperactive boys) on percent change in vermis T2-RT: significant group effect
[2]; low dose (0.5 mg/kg/day, one week), seven boys at least 20% more active than the most active comparison subject
  increase in vermal T2-RT relative to placebo: 1.2%
[2]; low dose (0.5 mg/kg/day, one week)
  decrease in vermal T2-RT relative to placebo (average): 1.3%
[2]; low dose, F=0.63, df=1, 8, p=0.63
  group effect (hyperactive vs non-hyperactive boys) on percent change in vermis T2-RT: non-significant group effect
[2]; ten ADHD boys, F=1.167, df=3, 27, p=0.34
  effect of dose on cerebellar or vermal T2-RT, repeated-measures ANOVA without covariate: failed to reveal any significant effect of dose
[2]; ten ADHD boys, F=4.85, df=3, 24, p=0.009, effect of dose linear
  effect of treatment on vermal T2-RT, analysis of covariance with motor activity: robust effect
[3]
  effect of treatment on T2-RT in the adjacent cerebellar hemispheres: No effect
[4]
  effect of daily high-dose treatment on T2-RT in the putamen: changed T2-RT in the putamen
[5]
  effect of chronic treatment on regional brain metabolism (PET): no consistent effect
[5]; subjects with high availability of DA D2 receptors, Volkow et al. 1997
  effect on frontotemporal metabolism: increased frontotemporal metabolism
[5]; subjects with low availability of D2 receptors, Volkow et al. 1997
  effect on metabolism: decreased metabolism
[6]
  effect on relaxation times in the cerebellum: dose-dependently altered
[7]
  effect on relaxation times in the putamen: significantly altered

## C[C@H](N)Cc1ccccc1 [dextroamphetamine]
[8]
  effect on attention: robust effects on attention
[5]
  effect of chronic treatment on regional brain metabolism (PET): no consistent effect
[5]; i.v., adult ADHD subjects, Ernst et al. 1998
  effect on global or regional metabolic rates: no consistent effect

Reference: patent publication US6898455B2, “Method for providing optimal drug dosage” (The McLean Hospital Corporation, priority 1999, dated 2005)
